The values below come from patent US10047105B2, “Gyrase inhibitors” (Merck Sharp & Dohme Corp., priority 2009, dated 2018).

Values after ≈ are worked out from the molar mass of the structure shown.

This assay relates to S. aureus ATCC 13709. Put plainly: MIC, antibacterial potency, S. aureus. To be noted: S. aureus. The assay is classed as cell-based.
On to `CCc1[nH]c2nc(Sc3cccnc3)nc(Cl)c2c1C=O` [700,075], for which the MIC, SA is 64 µg/mL (≈ 201 µM).
The same measure for `CCc1[nH]c2nc(Sc3cccnc3)nc(NCC(C)C)c2c1C=O` [700,076]: more than 64 µg/mL; for `CCc1[nH]c2nc(Sc3cccnc3)nc(NCc3ccc(C)o3)c2c1C=O` [700,077]: more than 64 µg/mL.
Under `CCc1[nH]c2nc(Sc3cccnc3)nc(NCC3CCCCC3)c2c1C=O` [700,078] stands more than 64 µg/mL.
`CCc1[nH]c2nc(Sc3cccnc3)nc(NCCOc3ccccc3)c2c1C=O` [700,079] registered an MIC, SA of more than 64 µg/mL.
Under `CCc1[nH]c2nc(Sc3cccnc3)nc(NCc3ccccc3)c2c1C=O` [700,080] stands more than 64 µg/mL; under `CCOCCNc1nc(Sc2cccnc2)nc2[nH]c(CC)c(C=O)c12` [700,082], more than 64 µg/mL.
The same measure for `CCc1[nH]c2nc(Sc3cccnc3)nc(N3CCN(C(C)C)CC3)c2c1C=O` [700,084]: more than 64 µg/mL; for `CCc1[nH]c2nc(Sc3cccnc3)nc(N3CCN(CC(=O)N(C)C)CC3)c2c1C=O` [700,085]: more than 64 µg/mL.
Under `CCc1[nH]c2nc(Sc3cccnc3N)nc(Cl)c2c1C=O` [700,088] stands more than 64 µg/mL; under `CCc1[nH]c2nc(Sc3cccnc3)nc(NCC(O)CO)c2c1C=O` (stereo not shown) [700,090], more than 64 µg/mL.
Molecule `CCc1[nH]c2nc(Sc3cccnc3)nc(NCc3ccccc3OC)c2c1C=O` [700,091] had an MIC, SA of more than 64 µg/mL.
The molecule `CCc1[nH]c2nc(Sc3cccnc3)nc(NCC3CCCO3)c2c1C=O` (stereo not shown) [700,092] yielded an MIC, SA of 64 µg/mL (≈ 167 µM).
For `CCc1[nH]c2nc(Sc3cccnc3)nc(NC(C)C)c2c1C=O` [700,093], the MIC, SA is more than 64 µg/mL.
Molecule `CCc1[nH]c2nc(Sc3cccnc3)nc(NCCOC)c2c1C=O` [700,094] registered an MIC, SA of 64 µg/mL (≈ 179 µM).
The same measure for `CCc1[nH]c2nc(Sc3cccnc3)nc(NCCO)c2c1C=O` [700,096]: more than 64 µg/mL; for `CCc1[nH]c2nc(Sc3cccnc3)nc(NCc3cccc(S(C)(=O)=O)c3)c2c1C=O.Cl` [700,098]: more than 64 µg/mL; for `CCc1[nH]c2nc(Sc3nc4ccccc4s3)nc(Cl)c2c1C=O` [700,099]: more than 64 µg/mL.
Under `CCc1[nH]c2nc(Sc3nc4ccccc4s3)nc(NC[C@H](C)O)c2c1C=O` [700,100] stands more than 64 µg/mL.
The same measure for `CCc1[nH]c2nc(Sc3nc4ccccc4s3)nc(NC(C)C)c2c1C=O` [700,101]: more than 64 µg/mL.
The molecule `CCc1[nH]c2nc(Sc3nc4ccccc4s3)nc(NCCN3CCOCC3)c2c1C=O` [700,102] had an MIC, SA of more than 64 µg/mL.
The same measure for `CCc1[nH]c2nc(Sc3nc4ccccc4s3)nc(NCc3cccnc3)c2c1C=O` [700,103]: more than 64 µg/mL; for `C#CCNc1nc(Sc2nc3ccccc3s2)nc2[nH]c(CC)c(C=O)c12` [700,104]: more than 64 µg/mL; for `CCNc1nc(Sc2nc3ccccc3s2)nc2[nH]c(CC)c(C=O)c12` [700,105]: more than 64 µg/mL.
The molecule `CCc1[nH]c2nc(Sc3nc4ccccc4s3)nc(NCCCN3CCOCC3)c2c1C=O` [700,106] came in with an MIC, SA of more than 64 µg/mL.
`CCc1[nH]c2nc(Sc3nc4ccccc4s3)nc(NCCCn3ccnc3)c2c1C=O` [700,107] had an MIC, SA of more than 64 µg/mL.
Molecule `CCc1[nH]c2nc(Sc3nc4ccccc4s3)nc(NN)c2c1C=O` [700,108] had an MIC, SA of more than 64 µg/mL.
The same measure for `CCc1[nH]c2nc(Sc3nc4ccccc4s3)nc(Cl)c2c1CO` [700,109]: more than 64 µg/mL.
The same measure for `CCc1[nH]c2nc(Sc3cccnc3)nc(Cl)c2c1C(C)=O` [700,119]: 64 µg/mL (≈ 192 µM).
Under `CCc1[nH]c2nc(Sc3cccnc3)nc(NCCCn3ccnc3)c2c1C(C)=O` [700,121] stands 32 µg/mL (≈ 75.9 µM); under `CCc1[nH]c2nc(Sc3cccnc3)nc(NC(C)C)c2c1C(C)=O` [700,122], more than 64 µg/mL; under `CCc1[nH]c2nc(Sc3cccc(C(=O)O)c3)nc(NC[C@H](C)O)c2c1C=O` [700,127], more than 64 µg/mL.
The molecule `CCc1[nH]c2nc(Sc3cccnc3)nc(OC)c2c1C=O` [700,129] gave an MIC, SA of 16 µg/mL (≈ 50.9 µM).
`CCOc1nc(Sc2cccnc2)nc2[nH]c(CC)c(C=O)c12` [700,130] had an MIC, SA of 8 µg/mL (≈ 24.4 µM).
